Where two headings read alike, the source gives them in different places.
What was measured:
[1] = target: T1, erbB1 (Homo sapiens, UniProt P00533); assay: Isolated enzyme inhibition (Invitrogen Z′-LYTE kinase assay); type: biochemical; settings: 10 μM ATP, duplicate
[2] = test system: SW620 cells; assay: Cellular growth inhibition (sulforhodamine B); type: cell-based, Human; settings: Table 3
[3] = target: erbB4 (Homo sapiens, UniProt Q15303); assay: Isolated enzyme inhibition (Invitrogen Z′-LYTE kinase assay); type: biochemical; settings: 10 μM ATP, duplicate
Sequence of erbB4 (Q15303 26-1308): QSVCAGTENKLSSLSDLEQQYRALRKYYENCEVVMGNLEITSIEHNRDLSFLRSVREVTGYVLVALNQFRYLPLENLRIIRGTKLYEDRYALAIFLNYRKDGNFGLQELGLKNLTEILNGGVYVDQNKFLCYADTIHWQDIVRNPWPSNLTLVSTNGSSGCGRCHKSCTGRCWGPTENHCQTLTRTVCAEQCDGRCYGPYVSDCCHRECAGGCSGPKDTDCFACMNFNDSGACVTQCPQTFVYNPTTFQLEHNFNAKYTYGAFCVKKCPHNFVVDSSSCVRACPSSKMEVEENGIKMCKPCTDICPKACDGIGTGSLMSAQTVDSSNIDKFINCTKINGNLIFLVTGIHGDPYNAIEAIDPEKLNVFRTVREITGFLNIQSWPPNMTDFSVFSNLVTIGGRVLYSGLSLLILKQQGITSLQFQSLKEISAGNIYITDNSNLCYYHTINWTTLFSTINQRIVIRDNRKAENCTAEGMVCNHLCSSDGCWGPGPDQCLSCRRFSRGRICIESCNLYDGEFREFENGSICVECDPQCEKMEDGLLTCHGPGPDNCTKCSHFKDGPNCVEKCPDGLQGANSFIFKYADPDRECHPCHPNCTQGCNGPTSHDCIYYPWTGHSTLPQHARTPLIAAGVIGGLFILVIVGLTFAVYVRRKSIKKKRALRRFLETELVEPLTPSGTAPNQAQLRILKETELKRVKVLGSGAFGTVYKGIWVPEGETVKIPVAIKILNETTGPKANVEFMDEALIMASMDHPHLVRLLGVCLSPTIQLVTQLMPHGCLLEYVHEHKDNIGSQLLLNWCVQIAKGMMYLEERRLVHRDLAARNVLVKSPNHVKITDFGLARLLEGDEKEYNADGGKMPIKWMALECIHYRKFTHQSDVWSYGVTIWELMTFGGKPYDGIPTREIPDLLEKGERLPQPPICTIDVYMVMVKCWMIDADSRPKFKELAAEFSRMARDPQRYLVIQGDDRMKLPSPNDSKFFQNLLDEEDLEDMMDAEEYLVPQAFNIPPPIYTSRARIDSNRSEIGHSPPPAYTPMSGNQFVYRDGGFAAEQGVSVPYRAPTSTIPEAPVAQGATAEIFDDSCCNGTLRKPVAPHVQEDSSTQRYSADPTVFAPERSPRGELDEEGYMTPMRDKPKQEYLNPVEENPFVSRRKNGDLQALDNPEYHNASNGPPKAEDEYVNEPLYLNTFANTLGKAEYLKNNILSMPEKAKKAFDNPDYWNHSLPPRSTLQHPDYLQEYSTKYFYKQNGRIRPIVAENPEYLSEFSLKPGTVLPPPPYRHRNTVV
Procedure: (§1) The compounds of Table 1 were tested for their ability to inhibit erbB1, erbB1^T790M, erbB2 and erbB4 in an isolated enzyme assay. This assay utilises synthetic FRET-capable peptide substrates. Phosphorylation of these substrates protects them from cleavage by a development reagent, leaving their FRET-capabilities intact. […] As a further consideration, for compounds capable of irreversible inhibition of an enzyme, the IC50 reflects both reversible and irreversible binding to the enzyme.

[4] = target: erbB2 (Homo sapiens, UniProt P04626); assay: as above; type: biochemical; settings: 10 μM ATP, duplicate
Sequence of erbB2 (P04626 23-1255): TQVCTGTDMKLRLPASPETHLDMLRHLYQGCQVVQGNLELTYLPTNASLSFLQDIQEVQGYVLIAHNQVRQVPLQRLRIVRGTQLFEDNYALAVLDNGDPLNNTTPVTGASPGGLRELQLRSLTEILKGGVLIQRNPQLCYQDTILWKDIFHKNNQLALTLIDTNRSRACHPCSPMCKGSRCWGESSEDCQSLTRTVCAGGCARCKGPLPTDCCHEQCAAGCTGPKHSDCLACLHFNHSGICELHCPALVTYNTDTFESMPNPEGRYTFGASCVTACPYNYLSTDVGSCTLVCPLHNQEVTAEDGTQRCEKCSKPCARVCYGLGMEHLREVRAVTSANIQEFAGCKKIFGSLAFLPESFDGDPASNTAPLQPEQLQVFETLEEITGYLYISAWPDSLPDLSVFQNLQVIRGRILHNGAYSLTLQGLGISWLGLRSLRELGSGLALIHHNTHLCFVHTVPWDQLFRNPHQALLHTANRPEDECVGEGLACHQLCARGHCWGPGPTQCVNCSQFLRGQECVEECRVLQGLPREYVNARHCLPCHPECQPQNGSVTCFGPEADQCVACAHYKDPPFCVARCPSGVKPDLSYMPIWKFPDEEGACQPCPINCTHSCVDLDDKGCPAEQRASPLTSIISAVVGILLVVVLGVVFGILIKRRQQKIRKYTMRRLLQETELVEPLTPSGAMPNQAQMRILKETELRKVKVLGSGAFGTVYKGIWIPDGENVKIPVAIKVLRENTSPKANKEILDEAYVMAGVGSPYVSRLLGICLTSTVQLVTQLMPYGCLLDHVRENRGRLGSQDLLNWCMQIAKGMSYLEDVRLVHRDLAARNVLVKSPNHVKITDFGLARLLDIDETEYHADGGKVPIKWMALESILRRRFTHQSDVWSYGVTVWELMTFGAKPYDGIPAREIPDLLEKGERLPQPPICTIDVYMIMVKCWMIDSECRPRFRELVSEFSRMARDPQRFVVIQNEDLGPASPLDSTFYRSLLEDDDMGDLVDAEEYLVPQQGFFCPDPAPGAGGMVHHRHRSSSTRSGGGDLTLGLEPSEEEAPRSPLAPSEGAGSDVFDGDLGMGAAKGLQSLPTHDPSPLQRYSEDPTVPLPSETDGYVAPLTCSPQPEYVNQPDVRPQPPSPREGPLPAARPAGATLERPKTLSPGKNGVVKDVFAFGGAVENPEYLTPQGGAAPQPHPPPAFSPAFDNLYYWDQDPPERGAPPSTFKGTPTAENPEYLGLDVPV
Procedure: as §1

[5] = test system: SKBR3 cells; assay: Cellular growth inhibition (sulforhodamine B); type: cell-based, Human; settings: Table 3
[6] = target: erbB1^T790M (Homo sapiens, UniProt P00533, T790M); assay: Isolated enzyme inhibition (Invitrogen Z′-LYTE kinase assay); type: biochemical; settings: 10 μM ATP, duplicate
Sequence of erbB1^T790M (P00533 25-1210 T790M): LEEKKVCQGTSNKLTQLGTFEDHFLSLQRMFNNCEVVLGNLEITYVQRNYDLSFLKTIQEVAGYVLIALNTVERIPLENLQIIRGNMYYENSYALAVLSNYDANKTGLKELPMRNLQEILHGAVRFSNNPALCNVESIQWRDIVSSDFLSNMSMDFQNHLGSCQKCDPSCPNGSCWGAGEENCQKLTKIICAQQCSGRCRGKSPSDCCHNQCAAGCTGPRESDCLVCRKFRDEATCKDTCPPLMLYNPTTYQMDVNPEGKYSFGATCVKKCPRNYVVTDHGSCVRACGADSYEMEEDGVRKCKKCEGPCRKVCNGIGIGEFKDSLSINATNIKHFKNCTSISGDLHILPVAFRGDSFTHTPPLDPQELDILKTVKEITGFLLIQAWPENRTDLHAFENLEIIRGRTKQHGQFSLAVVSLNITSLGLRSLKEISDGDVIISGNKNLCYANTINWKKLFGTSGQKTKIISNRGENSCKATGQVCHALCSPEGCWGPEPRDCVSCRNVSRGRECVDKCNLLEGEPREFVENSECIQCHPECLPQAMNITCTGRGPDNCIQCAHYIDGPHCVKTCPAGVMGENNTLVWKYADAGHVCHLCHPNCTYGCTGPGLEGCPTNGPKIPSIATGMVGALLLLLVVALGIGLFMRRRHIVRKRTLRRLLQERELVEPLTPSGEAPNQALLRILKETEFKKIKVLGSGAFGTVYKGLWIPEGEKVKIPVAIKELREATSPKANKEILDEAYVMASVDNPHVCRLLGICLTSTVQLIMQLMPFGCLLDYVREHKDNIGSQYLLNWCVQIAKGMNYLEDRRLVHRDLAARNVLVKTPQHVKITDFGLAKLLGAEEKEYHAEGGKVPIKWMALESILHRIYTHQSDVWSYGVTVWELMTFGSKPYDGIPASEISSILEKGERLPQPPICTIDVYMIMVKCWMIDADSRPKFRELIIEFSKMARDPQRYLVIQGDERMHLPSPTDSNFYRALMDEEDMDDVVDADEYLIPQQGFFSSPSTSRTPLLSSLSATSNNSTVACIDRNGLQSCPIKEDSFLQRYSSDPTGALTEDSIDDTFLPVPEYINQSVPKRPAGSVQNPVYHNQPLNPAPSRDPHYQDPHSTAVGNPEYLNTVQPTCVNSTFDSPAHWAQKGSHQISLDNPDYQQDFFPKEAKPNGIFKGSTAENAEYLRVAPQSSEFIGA

[7] = test system: A431 cells; assay: Cellular growth inhibition (sulforhodamine B)
[8] = target: T1, erbB1; assay: Inhibition of erbB1 autophosphorylation in EGF-stimulated intact A431 cells (Western blot); settings: for Deact. (fold reduction in cellular erbB1 inhibition relative to the parent kinase inhibitor): A431 cells
[9] = Pulse radiolysis (E(1) and fragmentation rate); type: physicochemical; settings: for E (1)/V (one-electron reduction potential): determined against methylviologen
[10] = Steady state radiolytic reduction by the CO2.− radical with HPLC-MS; type: physicochemical; settings: for Effector release/Prodrug loss: 0.95 reducing equivalents; for Detection of MNA (methyl nitroaromatic) / release of effector following 1-electron reduction: HPLC-MS; for % Loss of prodrug / % Release of effector: HPLC-MS at 0.95 reducing equivalents; for release of effector following 1-electron reduction: steady state radiolysis
[11] = test system: A431 xenografts; assay: In vivo efficacy in A431 xenografts; settings: A431 xenografts, q4dx3 at MTD, IP in lactate buffer
Procedure: Specific pathogen-free homozygous female CD-1 nude mice (Charles River Laboratories, Wilmington, Mass.) were inoculated subcutaneously with a single cell suspension of A431 cells (5×10^6 cells/100 […]; right flank). When A431 tumour xenografts were established (typically 6-10 days) mice were randomized to treatment groups. All compounds were prepared in lactate buffer (pH4). Mice were dosed by intraperitoneal injection (0.01-0.03 ml/g) using the stated schedules and dose levels. Tumour size and body weights were measured at regular intervals. Tumour volume was calculated as π (length×width^2)/6. […] Differences in RTV^4 were tested for statistical difference by Mann Whitney U test using SigmaStat v3.5.

[12] = target: T1, erbB1; assay: Cellular erbB1 inhibition under oxic and hypoxic conditions in A431 cells; type: cell-based; settings: 1 μM, 4 hour exposure oxic or hypoxic, washed, EGF stimulated
Procedure: Human A431 epidermoid carcinoma cells were seeded at 400,000 cells/well in a 6 well plate in alpha minimal essential media (αMEM) containing 10% fetal bovine serum, 10 mM D-Glucose and 0.2 mM 2′-deoxycytidine. A431 cells were allowed to attach for 90 minutes under oxic or anoxic conditions, then exposed to test compounds at a concentration of 1 uM for a further 4 hours under oxic or anoxic conditions. The cells were then washed free of test compounds three times using serum free media and then returned to the incubator under oxic conditions overnight. The cells were then stimulated with 100 ng/mL EGF for 15 minutes before the medium was aspirated and the cells were washed with ice-cold PBS.

[13] = Homo sapiens, SW-620, 24 hour exposure entirely oxic, read-out: Cellular Growth Inhibition IC50 SW620 Oxic
[14] = Homo sapiens, SW-620, first 4 hours anoxic, read-out: Cellular Growth Inhibition IC50 SW620 Anoxic
[15] = Homo sapiens, SK-BR-3, 24 hour exposure entirely oxic, read-out: Cellular Growth Inhibition IC50 SKBR3 Oxic
[16] = Homo sapiens, SK-BR-3, first 4 hours anoxic, read-out: Cellular Growth Inhibition IC50 SKBR3 Anoxic
[17] = Homo sapiens, A-431, 24 h, read-out: Cellular Growth Inhibition IC50 A431 Oxic
[18] = Homo sapiens, A-431, read-out: Cellular Growth Inhibition IC50 A431 Anoxic

T1 sequence (P00533 25-1210): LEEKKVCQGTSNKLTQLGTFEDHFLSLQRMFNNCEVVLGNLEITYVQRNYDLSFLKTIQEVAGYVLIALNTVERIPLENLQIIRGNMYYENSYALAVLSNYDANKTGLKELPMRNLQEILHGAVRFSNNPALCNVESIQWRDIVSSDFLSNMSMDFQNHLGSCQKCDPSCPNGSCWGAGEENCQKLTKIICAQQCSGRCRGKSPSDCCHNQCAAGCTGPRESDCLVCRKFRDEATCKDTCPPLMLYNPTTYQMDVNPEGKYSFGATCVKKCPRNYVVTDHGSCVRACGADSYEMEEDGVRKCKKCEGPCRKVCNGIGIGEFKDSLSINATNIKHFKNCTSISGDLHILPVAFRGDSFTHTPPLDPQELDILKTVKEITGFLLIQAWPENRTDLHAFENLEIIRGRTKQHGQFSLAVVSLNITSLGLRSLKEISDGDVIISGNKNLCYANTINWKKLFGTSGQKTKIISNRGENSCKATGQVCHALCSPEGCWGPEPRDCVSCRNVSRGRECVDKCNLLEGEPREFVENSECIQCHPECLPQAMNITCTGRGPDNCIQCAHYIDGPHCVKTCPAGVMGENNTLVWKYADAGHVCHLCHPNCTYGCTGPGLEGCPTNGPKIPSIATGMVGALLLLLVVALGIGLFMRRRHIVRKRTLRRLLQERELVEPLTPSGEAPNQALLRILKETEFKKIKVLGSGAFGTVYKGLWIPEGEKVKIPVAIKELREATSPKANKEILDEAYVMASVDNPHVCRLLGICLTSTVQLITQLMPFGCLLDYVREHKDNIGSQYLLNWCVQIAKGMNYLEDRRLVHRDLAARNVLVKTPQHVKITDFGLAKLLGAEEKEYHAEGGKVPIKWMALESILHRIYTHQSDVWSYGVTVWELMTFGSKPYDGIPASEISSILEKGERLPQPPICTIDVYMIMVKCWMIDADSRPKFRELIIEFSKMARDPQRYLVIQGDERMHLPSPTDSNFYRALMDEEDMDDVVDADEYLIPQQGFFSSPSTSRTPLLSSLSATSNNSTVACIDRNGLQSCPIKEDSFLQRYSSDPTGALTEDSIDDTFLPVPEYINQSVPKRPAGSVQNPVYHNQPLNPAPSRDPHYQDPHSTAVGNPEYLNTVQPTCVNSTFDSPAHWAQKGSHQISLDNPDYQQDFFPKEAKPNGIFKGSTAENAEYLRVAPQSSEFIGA

Compound	IC50 [1]	IC50 [2, 13]	IC50 [2, 14]	SW620 Deact. [2]	SW620 HCR [2]	IC50 [3]	IC50 [4]	IC50 [5, 15]	IC50 [5, 16]	SKBR3 Deact. [5]	SKBR3 HCR [5]	IC50 [6]	IC50 [7, 17]	IC50 [7, 18]	A431 Deact. (fold reduction in oxic growth inhibition relative to parent kinase inhibitor) ([7]; Table 3)	A431 HCR (Hypoxic Cytotoxicity Ratio) ([7]; Table 3)	IC50 [8]	Deact. (fold reduction in cellular erbB1 inhibition relative to the parent kinase inhibitor) ([8]; Table 2)	E (1)/V (one-electron reduction potential) [9]	Effector release/Prodrug loss [10]	further results
Cn1cnc([N+](=O)[O-])c1C[N+](C)(C)CCCC(=O)Nc1ccc2ncnc(Nc3cccc(Br)c3)c2c1 [Compound 27, 4-{([4-(3-bromoanilino)-6-quinazolinyl]amino}-N,N-dimethyl-N-[(1-methyl-4-nitro-1H-imidazol-5-yl)methyl]-4-oxo-1-butanaminium bromide]	0.64 nM	684000 nM	585000 nM	37 fold	1.2 fold	174 nM	191 nM	507000 nM	74300 nM	159 fold	7.6 fold	798 nM	255000 nM	76100 nM	203 fold	3.4 fold	3600 nM	201 fold	–	–	–
Cn1c(C[N+](C)(C)C/C=C/C(=O)Nc2ccc3ncnc(Nc4cccc(Br)c4)c3c2)ccc1[N+](=O)[O-].[Br-] [Compound 19, (2E)-4-{[4-(3-bromoanilino)-6-quinazolinyl]amino}-N,N-dimethyl-N-[(1-methyl-5-nitro-1H-pyrrol-2-yl)methyl]-4-oxo-2-buten-1-ammonium bromide]	0.4 nM	–	–	46 fold	5.6 fold	61 nM	113 nM	–	–	78 fold	–	451 nM	–	–	–	–	–	–	−0.493 V	0.73	kfrag. (fragmentation rate constant upon 1-electron reduction) ([9]; benzyl-type radical formation): 90 ± 10 s⁻¹; IC50 ([2]; 24 hour exposure entirely oxic, read-out: Cellular Growth Inhibition IC50 SW620 Oxic): 156000 nM; IC50 ([2]; first 4 hours anoxic, read-out: Cellular Growth Inhibition IC50 SW620 Anoxic): 28000 nM; Detection of MNA (methyl nitroaromatic) [10]: No; % Loss of prodrug [10]: 63%; % Release of effector [10]: 46%; release of effector following 1-electron reduction [10]: released effector (compound 11) detected; tumour growth inhibition (TGI) [11]: 120%; IC50 ([5]; 24 hour exposure entirely oxic, read-out: Cellular Growth Inhibition IC50 SKBR3 Oxic): 6330 nM; IC50 ([5]; first 4 hours anoxic, read-out: Cellular Growth Inhibition IC50 SKBR3 Anoxic): 483 nM; IC50 ([7]; read-out: Cellular Growth Inhibition IC50 A431 Anoxic, Table 3, first 4 hours of 24 hour exposure anoxic): 201 nM; IC50 ([7]; read-out: Cellular Growth Inhibition IC50 A431 Oxic, Table 3, 24 hour exposure entirely oxic): 2640 nM; IC50 ([8]; read-out: Cellular Enzyme Inhibition IC50 erbB1, Table 2, intact A431 cells, EGF-stimulated, average of two determinations): 962 nM
Cn1ncc([N+](=O)[O-])c1C[N+](C)(C)C/C=C/C(=O)Nc1ccc2ncnc(Nc3cccc(Br)c3)c2c1 [Compound 22, (2E)-4-{[4-(3-bromoanilino)-6-quinazolinyl]amino}-N,N-dimethyl-N-[(1-methyl-4-nitro-1H-pyrazol-5-yl)methyl]-4-oxo-2-buten-1-ammonium bromide]	0.46 nM	281000 nM	123000 nM	82 fold	2.3 fold	–	135 nM	11000 nM	1640 nM	136 fold	6.7 fold	–	5860 nM	564 nM	147 fold	10.4 fold	1390 nM	151 fold	−0.449 V	0.49	Detection of MNA (methyl nitroaromatic) [10]: No; % Loss of prodrug [10]: 35%; % Release of effector [10]: 17%; release of effector following 1-electron reduction [10]: did not release their respective effector compounds; hypoxia-selective inhibition of p-erbB1 [12]: no apparent hypoxia-selective inhibition
Cn1cc([N+](=O)[O-])nc1C[N+](C)(C)C/C=C/C(=O)Nc1ccc2ncnc(Nc3cccc(Br)c3)c2c1 [Compound 21, (2E)-4-{[4-(3-bromoanilino)-6-quinazolinyl]amino}-N,N-dimethyl-N-[(1-methyl-4-nitro-1H-imidazol-2-yl)methyl]-4-oxo-2-buten-1-ammonium bromide]	0.53 nM	423000 nM	365000 nM	123 fold	1.2 fold	76 nM	128 nM	26900 nM	30000 nM	332 fold	0.9 fold	531 nM	11000 nM	13700 nM	277 fold	1.3 fold	1190 nM	130 fold	−0.468 V	0.30	Detection of MNA (methyl nitroaromatic) [10]: No; % Loss of prodrug [10]: 33%; % Release of effector [10]: 10%; release of effector following 1-electron reduction [10]: not observed; tumour growth inhibition (TGI) [11]: 10%; hypoxia-selective inhibition of p-erbB1 [12]: no apparent hypoxia-selective inhibition

From patent publication US9073916B2, “Prodrug forms of kinase inhibitors and their use in therapy” (AUCKLAND UNISERVICES LIMITED, priority 2009, dated 2015)
